target: T1, Axl (Homo sapiens, UniProt P30530); assay: LanthaScreen Eu kinase binding assay for Axl; conditions: read-out: Axl kinase binding activity (Kd)
T1 sequence (P30530 26-894): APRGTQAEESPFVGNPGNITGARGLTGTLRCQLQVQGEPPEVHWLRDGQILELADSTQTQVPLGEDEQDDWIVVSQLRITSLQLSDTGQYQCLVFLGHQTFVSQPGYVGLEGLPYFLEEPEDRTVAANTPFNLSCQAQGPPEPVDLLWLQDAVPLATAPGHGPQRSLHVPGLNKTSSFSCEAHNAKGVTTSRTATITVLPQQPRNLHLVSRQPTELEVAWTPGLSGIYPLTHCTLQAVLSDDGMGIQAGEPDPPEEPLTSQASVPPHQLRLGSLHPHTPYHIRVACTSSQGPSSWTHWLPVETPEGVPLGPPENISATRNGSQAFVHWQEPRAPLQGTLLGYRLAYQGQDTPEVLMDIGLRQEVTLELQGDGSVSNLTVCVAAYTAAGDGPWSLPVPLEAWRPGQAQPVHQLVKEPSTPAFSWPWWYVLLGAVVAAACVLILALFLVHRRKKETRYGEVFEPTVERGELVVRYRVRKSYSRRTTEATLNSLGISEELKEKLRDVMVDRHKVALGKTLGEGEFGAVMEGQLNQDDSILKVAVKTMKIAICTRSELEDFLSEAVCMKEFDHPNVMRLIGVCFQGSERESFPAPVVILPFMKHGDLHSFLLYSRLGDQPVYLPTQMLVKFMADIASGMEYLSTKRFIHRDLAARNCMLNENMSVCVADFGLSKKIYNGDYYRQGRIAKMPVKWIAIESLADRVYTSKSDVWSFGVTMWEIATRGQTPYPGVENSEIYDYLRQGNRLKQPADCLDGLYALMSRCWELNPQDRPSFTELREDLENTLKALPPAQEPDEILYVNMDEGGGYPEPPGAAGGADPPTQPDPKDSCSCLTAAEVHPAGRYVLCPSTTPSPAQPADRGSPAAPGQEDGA
Method in brief: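 Kd values come from control-normalized FRET loss, referenced to DMSO vehicle wells, after 1 h at room temperature. Each compound was serially diluted over eight steps in DMSO and competed against Tracer 236 (Alexa Fluor 647) for the kinase, which was tagged by a Eu anti-GST antibody.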

Structure (SMILES)	Kd [nM]
CCC(=O)n1cc(OCC(F)(F)F)c(C(=O)Nc2ccc(Oc3ccnc4cc(OC)c(OC)cc34)cn2)n1 [Compound 20]	< 100
COc1cc2nccc(Oc3ccc(NC(=O)c4nn(C)cc4OCC(F)(F)F)nc3)c2cc1OC [Compound 33]	< 100
COc1cc2nccc(Oc3ccc(NC(=O)c4nn(CCO)cc4OCC(F)(F)F)cc3F)c2cc1OC [Compound 51]	< 100
CCCn1cc(OCC(F)(F)F)c(C(=O)Nc2ccc(Oc3ccnc4cc(OC)c(OC)cc34)cc2)n1 [Compound 38]	< 100
COc1cc2nccc(Oc3ccc(NC(=O)c4nn(C5CCOC5)cc4OCC(F)(F)F)nc3)c2cc1OC (centres unmarked) [Compound 13]	< 100
COc1cc2nccc(Oc3ccc(NC(=O)c4nn(C(C)C)c(C)c4OCC(F)(F)F)nc3)c2cc1OC [Compound 2]	< 100
CCCn1cc(OCCC(F)(F)F)c(C(=O)Nc2ccc(Oc3ccnc4cc(OC)c(OC)cc34)cn2)n1 [Compound 31]	< 100
COc1cc2nccc(Oc3ccc(NC(=O)c4nn(CCNC5CC5)cc4OCC(F)(F)F)nc3)c2cc1OC [Compound 168]	< 100
COc1cc2nccc(Oc3ccc(NC(=O)c4nn(C(C)(C)C)cc4OCC(F)(F)F)nc3)c2cc1OC [Compound 22]	< 100
COc1cc2nccc(Oc3ccc(NC(=O)c4nn(CC(C)O)cc4OCC(F)(F)F)c(F)c3)c2cc1OC (centres unmarked) [Compound 76]	< 100
COc1cc2nccc(Oc3ccc(NC(=O)c4nn(C)cc4OCC(F)(F)F)cc3F)c2cc1OC [Compound 50]	< 100
COc1cc2nccc(Oc3ccc(NC(=O)c4nn(CC5CNC5)cc4OCC(F)(F)F)nc3)c2cc1OC [Compound 73]	100 to 500
COc1cc2nccc(Oc3ccc(NC(=O)c4nn(C5COC5)cc4OCC(F)(F)F)nc3)c2cc1OC [Compound 66]	< 100
COc1cc2nccc(Oc3ccc(NC(=O)c4sc(C5CC5)cc4OCC(F)(F)F)nc3)c2cc1OC [Compound 179]	100 to 500
COc1cc2nccc(Oc3ccc(NC(=O)c4nn(CCO)cc4OCC(F)(F)F)cc3C)c2cc1OC [Compound 56]	100 to 500
COc1cc2nccc(Oc3ccc(NC(=O)c4nn(C5CC5)cc4OCCC(F)(F)F)nn3)c2cc1OC [Compound 173]	< 100
COc1cc2nccc(Oc3ccc(NC(=O)c4nn(C5CCCC5)cc4OCC(F)(F)F)cc3)c2cc1OC [Compound 60]	< 100
COc1cc2nccc(Oc3ccc(NC(=O)c4nn(C5CCCC5)cc4OCC(F)(F)F)nc3)c2cc1OC [Compound 40]	< 100

Structure (SMILES)	Kd [nM]
COc1cc2nccc(Oc3ccc(NC(=O)c4nn(CC(C)C)cc4OCC(F)(F)F)nc3)c2cc1OC [Compound 21]	< 100
COc1cc2nccc(Oc3ccc(NC(=O)c4nn(CC5CCCCC5)cc4OCC(F)(F)F)nc3)c2cc1OC [Compound 43]	< 100
COc1cc2nccc(Oc3ccc(NC(=O)c4nn(C5CCCC5)cc4OCC(F)(F)F)c(F)c3)c2cc1OC [Compound 47]	< 100
COc1cc2nccc(Oc3ccc(NC(=O)c4cc(C5CC5)cnc4OCC(F)(F)F)nc3)c2cc1OC [Compound 178]	< 100
COc1cc2nccc(Oc3ccc(NC(=O)c4nn(CC5CCN(C)C5)cc4OCC(F)(F)F)nc3)c2cc1OC (centres unmarked) [Compound 169]	< 100
COc1cc2nccc(Oc3ccc(NC(=O)c4nn(CC5CCOC5)cc4OCC(F)(F)F)nc3)c2cc1OC (centres unmarked) [Compound 44]	< 100
COc1cc2nccc(Oc3ccc(NC(=O)c4nn(CC5CC5)cc4OCC(F)(F)F)nc3)c2cc1OC [Compound 41]	< 100
COc1cc2nccc(Oc3ccc(NC(=O)c4nn(C5CCOC5)cc4OCC(F)(F)F)cc3F)c2cc1OC (centres unmarked) [Compound 55]	< 100
COCCn1cc(OCC(F)(F)F)c(C(=O)Nc2ccc(Oc3ccnc4cc(OC)c(OC)cc34)cc2F)n1 [Compound 49]	< 100
CCCn1cc(OCC(F)(F)F)c(C(=O)Nc2ccc(Oc3ccnc4cc(OC)c(OC)cc34)c(F)c2)n1 [Compound 25]	< 100
COc1cc2nccc(Oc3ccc(NC(=O)c4nn(C5CCCC5)cc4OCC(F)(F)F)cc3C)c2cc1OC [Compound 57]	< 100
CCCn1cc(OCC(F)(F)F)c(C(=O)Nc2ccc(Oc3ccnc4cc(OC)c(OC)cc34)cc2C)n1 [Compound 27]	< 100
COCCn1cc(OCC(F)(F)F)c(C(=O)Nc2ccc(Oc3ccnc4cc(OC)c(OC)cc34)cc2)n1 [Compound 61]	< 100
COc1cc2nccc(Oc3ccc(NC(=O)c4nn(C)cc4OCC(F)(F)F)cc3C)c2cc1OC [Compound 37]	100 to 500
COc1cc2nccc(Oc3ccc(NC(=O)c4nn(CCCN)cc4OCC(F)(F)F)nc3)c2cc1OC [Compound 68]	< 100
COc1cc2nccc(Oc3ccc(NC(=O)c4nn(CC5CCCC5)cc4OCC(F)(F)F)nc3)c2cc1OC [Compound 71]	< 100
COc1cc2nccc(Oc3ccc(NC(=O)c4nn(CCC#N)cc4OCC(F)(F)F)nc3)c2cc1OC [Compound 39]	< 100

Other lines, results leading:

Kd [nM]	Structure (SMILES)
< 100	COc1cc2nccc(Oc3ccc(NC(=O)c4nn(CC(C)N)cc4OCC(F)(F)F)nc3)c2cc1OC (centres unmarked) [Compound 63]
< 100	COc1cc2nccc(Oc3ccc(NC(=O)c4nn(C5CCNC5)cc4OCC(F)(F)F)nc3)c2cc1OC (centres unmarked) [Compound 70]
< 100	COc1cc2nccc(Oc3ccc(NC(=O)c4nn(CC(C)(F)F)cc4OCC(F)(F)F)nc3)c2cc1OC [Compound 64]
< 100	COCCOc1cn(C2CC2)nc1C(=O)Nc1ccc(Oc2ccnc3cc(OC)c(OC)cc23)nn1 [Compound 171]
< 100	COCCn1cc(OCC(F)(F)F)c(C(=O)Nc2ccc(Oc3ccnc4cc(OC)c(OC)cc34)c(F)c2)n1 [Compound 54]
< 100	COc1cc2nccc(Oc3ccc(NC(=O)c4nn(C5CCC5)cc4OCC(F)(F)F)nc3)c2cc1OC [Compound 24]
≥ 500	COc1cc2nccc(Oc3ccc(NC(=O)c4nn(C5CC5)cc4OCC4CNC4)nn3)c2cc1OC [Compound 172]
100 to 500	COc1cc2nccc(Oc3ccc(NC(=O)c4nn(C5CCNC5)cc4OCC(F)(F)F)c(F)c3)c2cc1OC (centres unmarked) [Compound 74]
< 100	COc1cc2nccc(Oc3ccc(NC(=O)c4nn(C5CCCC5)cc4OCC(F)(F)F)cc3F)c2cc1OC [Compound 52]
< 100	COc1cc2nccc(Oc3ccc(NC(=O)c4nn(CC(C)=O)cc4OCC(F)(F)F)nc3)c2cc1OC [Compound 19]
< 100	CCCn1cc(OCCN(C)C)c(C(=O)Nc2ccc(Oc3ccnc4cc(OC)c(OC)cc34)cn2)n1 [Compound 177]
< 100	COc1cc2nccc(Oc3ccc(NC(=O)c4nn(C)cc4OCC(F)(F)F)c(F)c3)c2cc1OC [Compound 45]
< 100	COc1cc2nccc(Oc3ccc(NC(=O)c4nn(CC5CCC5)cc4OCC(F)(F)F)nc3)c2cc1OC [Compound 42]
< 100	COc1cc2nccc(Oc3ccc(NC(=O)c4nn(CCO)cc4OCC(F)(F)F)cc3)c2cc1OC [Compound 59]
< 100	COc1cc2nccc(Oc3ccc(NC(=O)c4nn(CC(C)C)cc4OCC(F)(F)F)c(F)c3)c2cc1OC [Compound 48]
≥ 500	COc1cc2nccc(Oc3ccc(NC(=O)c4nn(CC(C)O)cc4OCC4CN(C)C4)nc3)c2cc1OC (centres unmarked) [Compound 174]
< 100	COc1cc2nccc(Oc3ccc(NC(=O)c4nn(CCOC5CCC5)cc4OCC(F)(F)F)nc3)c2cc1OC [Compound 65]
100 to 500	COc1cc2nccc(Oc3ccc(NC(=O)c4nn(CCN)cc4OCC(F)(F)F)c(F)c3)c2cc1OC [Compound 75]
